For test [1], the system named is barnyard grass. Description: Test Example 3: herbicidal effect by foliage application, Wagner pot (Table 18, symbol H). It counts as in vivo, barnyard grass (Echinochloa crus-galli). The protocol: (§1) [Test Example 3] Herbicidal Effect Test by Foliage Application After alluvial soil was placed into 1/10000 are of Wagner pot, water was poured and mixed to form a submerged condition having a water depth of 0.1 cm to 0.5 cm. Seeds of barnyard grass, Chinese sprangletop, rice flat sedge, and rice were sowed and the pot was placed in a greenhouse at 25° C. to 30° C. for growth of the plants. After 14-day growth of the plants, the emulsion agent of the compound of the present invention prepared according to Formulation Example 2 was diluted with water so as to achieve a predetermined herbicide amount, and the diluted emulsion agent was uniformly applied to a foliage part with a small-sized spray. Three weeks after the herbicide application, the effect of the herbicide on each plant was evaluated according to the criteria of Test Example 1.

Test [2] concerns Chinese sprangletop. The test is described as follows: Test Example 3: herbicidal effect by foliage application, Wagner pot (Table 18, symbol D). Format: in vivo, chinese sprangletop (Leptochloa chinensis). How it is done:
as §1

Test [3] concerns rice flat sedge. The test is described as follows: Test Example 3: herbicidal effect by foliage application, Wagner pot (Table 18, symbol E). Format: in vivo, rice flat sedge (Cyperus iria). The protocol:
as §1

Setting [4] is: amount of applied herbicide 320 g/ha.
Where [5] appears, read: amount of applied herbicide 101 g/ha.
[6] abbreviates: amount of applied herbicide 125 g/ha.

Here are results for 15 molecules from patent US20230085307A1, “PYRIDAZINONE COMPOUND AND HERBICIDE” (NISSAN CHEMICAL CORPORATION, priority 2019, published 2023).

Turning to `CCCC(=O)Oc1c(C)nn(C)c(=O)c1-c1c(-c2ccc(OC)nc2OC)sc2ccccc12` [1-080], the “herbicidal effect on H (barnyard grass), rating 0-5” value (from here on “herbicidal effect on H … rating 0-5”) in test [1] (320 g/ha) is recorded as 0 (Herbicidal rate of 5% or less (almost no effect)). Moreover, in test [2] (320 g/ha), the “herbicidal effect on D (Chinese sprangletop), rating 0-5” value (“herbicidal effect on D … rating 0-5” below) was 0 (Herbicidal rate of 5% or less (almost no effect)). Moreover, in test [3] (320 g/ha), the “herbicidal effect on E (rice flat sedge), rating 0-5” value (“herbicidal effect on E … rating 0-5” for short) is 4 (Herbicidal rate of 70% or more and less than 90%).
Turning to `COc1nn(C)c(=O)c(-c2c(-c3ccc(Oc4ccccc4)cc3)sc3ccccc23)c1O` [1-164], in test [1] (80 g/ha), the “herbicidal effect on H … rating 0-5” value is 4 (Herbicidal rate of 70% or more and less than 90%). Further, the “herbicidal effect on D … rating 0-5” value in test [2] (80 g/ha) is 4 (Herbicidal rate of 70% or more and less than 90%). The “herbicidal effect on E … rating 0-5” value in test [3] (80 g/ha) was 4 (Herbicidal rate of 70% or more and less than 90%).
`CCCC(=O)Oc1c(OC)nn(C)c(=O)c1-c1c(-c2ccoc2)sc2ccccc12` [1-191]: in test [1] (80 g/ha), the “herbicidal effect on H … rating 0-5” value is 2 (Herbicidal rate of 20% or more and less than 40%). In test [2] (80 g/ha), the “herbicidal effect on D … rating 0-5” value was 5 (Herbicidal rate of 90% or more (almost completely withered)). Moreover, the “herbicidal effect on E … rating 0-5” value in test [3] (80 g/ha) is 4 (Herbicidal rate of 70% or more and less than 90%).
For `Cc1ccc2sc(-c3ccc4ccccc4c3)c(-c3c(O)c(C)nn(C)c3=O)c2c1` [2-154], the “herbicidal effect on H: barnyard grass” value in test [1] (setting [4]) was 3 (Herbicidal rate of 40% or more and less than 70%). Moreover, in test [2] (setting [4]), the “herbicidal effect on D: Chinese sprangletop” value is 0 (Herbicidal rate of 5% or less (almost no effect)). Moreover, the “herbicidal effect on E: rice flat sedge” value in test [3] (setting [4]) was 3 (Herbicidal rate of 40% or more and less than 70%).
As to `CCCC(=O)Oc1c(C)nn(C)c(=O)c1-c1c(-c2cc(C(F)(F)F)cc(C(F)(F)F)c2)sc2ccc(F)cc12` [2-359], the “herbicidal effect on H: barnyard grass” value in test [1] (setting [4]) is 3 (Herbicidal rate of 40% or more and less than 70%). Also, the “herbicidal effect on D: Chinese sprangletop” value in test [2] (setting [4]) is recorded as 5 (Herbicidal rate of 90% or more (almost completely withered)). In addition, the “herbicidal effect on E: rice flat sedge” value in test [3] (setting [4]) was 3 (Herbicidal rate of 40% or more and less than 70%).
For `COc1cc(F)ccc1-c1sc2ccc(S(C)(=O)=O)cc2c1-c1c(O)c(C)nn(C)c1=O` [2-377], the “herbicidal effect on H: barnyard grass” value in test [1] (setting [5]) was 4 (Herbicidal rate of 70% or more and less than 90%). For the same molecule, the “herbicidal effect on D: Chinese sprangletop” value in test [2] (setting [5]) was 3 (Herbicidal rate of 40% or more and less than 70%). Besides, the “herbicidal effect on E: rice flat sedge” value in test [3] (setting [5]) is 3 (Herbicidal rate of 40% or more and less than 70%).
With `CCn1nc(C)c(O)c(-c2c(-c3ccc(Cl)cc3)sc3ccc(F)cc23)c1=O` [2-400], the “herbicidal effect on D: Chinese sprangletop” value in test [2] (setting [4]) is recorded as 5 (Herbicidal rate of 90% or more (almost completely withered)). Moreover, the “herbicidal effect on E: rice flat sedge” value in test [3] (setting [4]) was 5 (Herbicidal rate of 90% or more (almost completely withered)).
Regarding `Cc1n[nH]c(=O)c(-c2c(-c3ccc(F)cc3)sc3ccc(F)cc23)c1O` [2-428], the “herbicidal effect on H: barnyard grass” value in test [1] (setting [6]) is 4 (Herbicidal rate of 70% or more and less than 90%). Further, the “herbicidal effect on D: Chinese sprangletop” value in test [2] (setting [6]) is 0 (Herbicidal rate of 5% or less (almost no effect)). Further, the “herbicidal effect on E: rice flat sedge” value in test [3] (setting [6]) is given as 0 (Herbicidal rate of 5% or less (almost no effect)).
Turning to `Cc1nn(Cc2ccccc2)c(=O)c(-c2c(-c3ccc(Cl)cc3)sc3ccc(F)cc23)c1O` [2-434], the “herbicidal effect on H: barnyard grass” value in test [1] (setting [4]) is 2 (Herbicidal rate of 20% or more and less than 40%). The “herbicidal effect on E: rice flat sedge” value in test [3] (setting [4]) was 2 (Herbicidal rate of 20% or more and less than 40%).
On to `Cc1nn(C)c(=O)c(-c2c(-c3ccc(OC(F)F)cc3)sc3c(C)cccc23)c1O` [4-128], for which the “herbicidal effect on barnyard grass (H)” value in test [1] (320 g/ha) is 3 (Herbicidal rate of 40% or more and less than 70%). Also, the “herbicidal effect on Chinese sprangletop (D)” value (from here on “herbicidal effect … (D)”) in test [2] (320 g/ha) was 0 (Herbicidal rate of 5% or less (almost no effect)). Further, the “herbicidal effect on rice flat sedge (E)” value in test [3] (320 g/ha) was 5 (Herbicidal rate of 90% or more (almost completely withered)).
Consider `Cc1nn(C)c(=O)c(-c2c(-c3ccc(C(=O)O)cc3)sc3cc(F)c(F)cc23)c1O` [5-027], for which, in test [1] (320 g/ha), the “herbicidal effect on barnyard grass (H)” value was 3 (Herbicidal rate of 40% or more and less than 70%). For the same molecule, in test [2] (320 g/ha), the “herbicidal effect … (D)” value is reported as 0 (Herbicidal rate of 5% or less (almost no effect)). Also, the “herbicidal effect on rice flat sedge (E)” value in test [3] (320 g/ha) was 0 (Herbicidal rate of 5% or less (almost no effect)).
As to `CCOc1cc(F)ccc1-c1cc2c(-c3c(O)c(C)nn(C)c3=O)c(-c3ccc(F)cc3OCC)sc2cc1OC` [5-081], the “herbicidal effect on barnyard grass (H)” value in test [1] (320 g/ha) is 2 (Herbicidal rate of 20% or more and less than 40%). Also, the “herbicidal effect … (D)” value in test [2] (320 g/ha) is 2 (Herbicidal rate of 20% or more and less than 40%). Moreover, the “herbicidal effect on rice flat sedge (E)” value in test [3] (320 g/ha) is on record as 0 (Herbicidal rate of 5% or less (almost no effect)).
Consider `Cc1cc2sc(-c3ccc(C(F)(F)F)cc3)c(-c3c(O)c(C)nn(C)c3=O)c2cc1C` [5-096], for which, in test [1] (320 g/ha), the “herbicidal effect on barnyard grass (H)” value was 3 (Herbicidal rate of 40% or more and less than 70%). Further, the “herbicidal effect … (D)” value in test [2] (320 g/ha) was 2 (Herbicidal rate of 20% or more and less than 40%). Also, the “herbicidal effect on rice flat sedge (E)” value in test [3] (320 g/ha) is 2 (Herbicidal rate of 20% or more and less than 40%).
Regarding `Cc1ccc(-c2oc3ccc(F)cc3c2-c2c(O)c(C)nn(C)c2=O)cc1` [9-017], the “Herbicidal effect on H (barnyard grass), foliage application” value in test [1] (setting [4]) was 5 (Herbicidal rate of 90% or more (almost completely withered)). Moreover, the “Herbicidal effect on D (Chinese sprangletop), foliage application” value in test [2] (setting [4]) is 3 (Herbicidal rate of 40% or more and less than 70%). Besides, in test [3] (setting [4]), the “Herbicidal effect on E (rice flat sedge), foliage application” value is 5 (Herbicidal rate of 90% or more (almost completely withered)).
With `Cc1nn(C)c(=O)c(-c2c(-c3ccc(C(F)(F)F)cc3)oc3ccc(F)cc23)c1O` [9-029], the “Herbicidal effect on H (barnyard grass), foliage application” value in test [1] (setting [4]) is 4 (Herbicidal rate of 70% or more and less than 90%). In addition, the “Herbicidal effect on D (Chinese sprangletop), foliage application” value in test [2] (setting [4]) was 3 (Herbicidal rate of 40% or more and less than 70%). Further, the “Herbicidal effect on E (rice flat sedge), foliage application” value in test [3] (setting [4]) is 5 (Herbicidal rate of 90% or more (almost completely withered)).
